Structures are written as SMILES.

The target of this assay is T1, Human TLR7 (Homo sapiens, UniProt Q9NYK1).
T1 construct: expressed in transfected cells; host or cells: HEK293 (hTLR7/seap-293)
T1 sequence (Q9NYK1 27-1049): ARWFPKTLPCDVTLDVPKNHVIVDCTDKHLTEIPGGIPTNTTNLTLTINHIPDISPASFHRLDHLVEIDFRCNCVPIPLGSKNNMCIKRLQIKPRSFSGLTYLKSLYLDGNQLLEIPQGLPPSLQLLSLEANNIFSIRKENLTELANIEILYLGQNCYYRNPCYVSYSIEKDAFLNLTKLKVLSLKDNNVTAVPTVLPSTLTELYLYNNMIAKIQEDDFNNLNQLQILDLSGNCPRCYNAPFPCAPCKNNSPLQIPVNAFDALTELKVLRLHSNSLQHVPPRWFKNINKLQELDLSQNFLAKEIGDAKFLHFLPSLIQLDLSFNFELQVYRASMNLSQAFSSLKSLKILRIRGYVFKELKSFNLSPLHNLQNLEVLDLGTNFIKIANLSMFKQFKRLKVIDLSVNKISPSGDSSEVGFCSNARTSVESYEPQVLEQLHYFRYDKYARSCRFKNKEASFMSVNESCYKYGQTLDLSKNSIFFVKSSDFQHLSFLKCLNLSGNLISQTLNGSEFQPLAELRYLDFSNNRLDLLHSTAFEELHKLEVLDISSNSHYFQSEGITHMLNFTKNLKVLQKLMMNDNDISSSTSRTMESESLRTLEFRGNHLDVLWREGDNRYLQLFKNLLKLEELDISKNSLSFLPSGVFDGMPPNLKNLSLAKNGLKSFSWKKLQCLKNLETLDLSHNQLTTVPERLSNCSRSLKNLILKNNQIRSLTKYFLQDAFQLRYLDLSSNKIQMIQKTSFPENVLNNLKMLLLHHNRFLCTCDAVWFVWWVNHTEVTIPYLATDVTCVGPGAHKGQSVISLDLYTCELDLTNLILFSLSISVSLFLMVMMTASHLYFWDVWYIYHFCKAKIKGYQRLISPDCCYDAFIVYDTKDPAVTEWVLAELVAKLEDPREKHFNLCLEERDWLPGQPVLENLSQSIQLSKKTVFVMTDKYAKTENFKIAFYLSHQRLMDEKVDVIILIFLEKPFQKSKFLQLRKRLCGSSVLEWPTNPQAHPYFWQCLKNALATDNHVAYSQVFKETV
Put plainly: Human TLR7 reporter assay (NF-kB-SEAP). It is filed as cell-based. To be noted: HEK293 cells stably carrying human TLR7 plasmid and NF-kB-SEAP reporter; 20 hours incubation; 1 nM-10 μM; absorbance 405 nm; read-out: Human TLR7 binding activity (pEC50) (converted). As to the method: Human TLR7 or rat TLR7 plasmid and a reporter plasmid (NF-kB-SEAP) stably-induced HEK293 cells were suspended in DMEM media (10% FBS, 1% NEAA, 10 μg/mL blastocidin S HCl, 100 ug/mL Zeocin), and the suspension was seeded on a 96-well plate in an amount of 90 μl/well (hTLR7/seap-293: 20000 cells/well, rTLR7/seap-293: 25000 cells/well).
To the cells seeded on the 96-well plate was added a test compound wherein DMSO stock solution (2 μl) was hundredfold diluted with medium (200 μl) in an amount of 10 μl/well (final concentration; 1 nM-10 μM, common ratio 3). The mixture was stirred by tapping in the side of the plate, and then incubated for 20 hours in a CO2 incubator. To the cells stimulated by a test compound was added a substrate for reporter assay (substrate for SEAP, pNPP) in an amount of 50 μl/well. Ten minutes after the addition of the substrate, a quenching solution (4N NaOH) was added in an amount of 50 μl/well, and the enzymatic reaction was quenched. Top seal A was attached on the plate, and the absorbance was measured by microplate reader (405 nm).
As to `CCCCOc1nc(N)c2[nH]c(=O)n(CCCN3CCN(C/C=C/c4ccccc4)CC3)c2n1` [Example 4, 2-Butoxy-9-(3-[4-cinnamylpiperazin-1-yl]propyl)-7,8-dihydro-8-oxoadenine], the EC50 was 0.794 µM.
Take `CCCCOc1nc(N)c2[nH]c(=O)n(CCCCCCCN3CCN(c4ccncc4)CC3)c2n1` [Example 6, 2-Butoxy-7,8-dihydro-9-(7-[4-(4-pyridyl)piperazin-1-yl]heptyl)-8-oxoadenine]: the EC50 was 0.0316 µM.
On to `CCCCOc1nc(N)c2[nH]c(=O)n(CCCCCCCN3CCN(c4ccc(OC)cc4)CC3)c2n1` [Example 8, 2-Butoxy-7,8-dihydro-9-(7-[4-(4-methoxyphenyl)piperazin-1-yl]heptyl)-8-oxoadenine], for which the EC50 was 0.251 µM.
For the compound `CCCCOc1nc(N)c2[nH]c(=O)n(CCCCCCCN3CCC(Oc4ccc(Cl)cc4C)CC3)c2n1` [Example 7, 2-Butoxy-9-(7-[4-(4-chloro-2-methylphenoxy)piperidin-1-yl]heptyl)-7,8-dihydro-8-oxoadenine], the EC50 was 0.631 µM.
In the case of `CCCCOc1nc(N)c2[nH]c(=O)n(CCCCCCCN3CCN(c4ccc(C(C)=O)cc4)CC3)c2n1` [Example 5, 9-(7-[4-(4-Acetylphenyl)piperazin-1-yl]heptyl-2-butoxy-7,8-dihydro)-8-oxoadenine], the EC50 is 0.158 µM.
